Test results taken from ChEMBL document CHEMBL3352110, “Design, synthesis and in vitro evaluation of novel dehydroabietic acid derivatives containing a dipeptide moiety as potential anticancer agents” (Eur J Med Chem, 2015).

How the values were obtained:
Format in all cases: functional, cell-based
[1] = system: HeLa; test: Cytotoxicity against human HeLa cells after 48 hrs by MTT assay
[2] = system: NCI-H460; test: Cytotoxicity against human NCI-H460 cells after 48 hrs by MTT assay; conditions: NCI-H460, 48 h
[3] = system: MGC-803; test: Cytotoxicity against human MGC803 cells after 48 hrs by MTT assay; conditions: MGC-803, 48 h
[4] = Cytotoxicity against human HL7702 cells after 48 hrs by MTT assay; conditions: L02, 48 h

Compound	IC50 [1]	IC50 [2]	IC50 [3]	IC50 [4]
CC(C)c1ccc2c(c1)C(=O)C[C@H]1[C@](C)(C(=O)N[C@H](Cc3ccccc3)C(=O)Nc3ccccc3)CCC[C@]21C	57.8 µM	51.9 µM	30.5 µM	53.3 µM
COc1ccc(NC(=O)[C@H](Cc2ccccc2)NC(=O)[C@]2(C)CCC[C@]3(C)c4ccc(C(C)C)cc4C(=O)C[C@@H]23)cc1	52.3 µM	> 100 µM	49 µM	59.6 µM
CC(C)c1ccc2c(c1)/C(=N\O)C[C@H]1[C@](C)(C(=O)N[C@@H](Cc3ccccc3)C(=O)Nc3ccccc3F)CCC[C@]21C	34.1 µM	44.8 µM	17.8 µM	57.5 µM
CC(C)c1ccc2c(c1)C(=O)C[C@H]1[C@](C)(C(=O)N[C@@H](Cc3ccccc3)C(=O)Nc3ccccc3)CCC[C@]21C	29.1 µM	29 µM	27.6 µM	51.6 µM
COc1ccccc1NC(=O)[C@@H](Cc1ccccc1)NC(=O)[C@]1(C)CCC[C@]2(C)c3ccc(C(C)C)cc3/C(=N\O)C[C@@H]12	18.4 µM	37.1 µM	18.7 µM	57.9 µM
CC(C)c1ccc2c(c1)C(=O)C[C@H]1[C@](C)(C(=O)N[C@H](Cc3ccccc3)C(=O)Nc3ccc(F)cc3)CCC[C@]21C	16.3 µM	34.3 µM	39.6 µM	52.4 µM
CC(C)c1ccc2c(c1)/C(=N\O)C[C@H]1[C@](C)(C(=O)N[C@H](Cc3ccccc3)C(=O)Nc3ccc(F)cc3)CCC[C@]21C	20.6 µM	58.6 µM	17.3 µM	53.8 µM
CC(C)c1ccc2c(c1)/C(=N\O)C[C@H]1[C@](C)(C(=O)N[C@H](Cc3ccccc3)C(=O)Nc3ccccc3Cl)CCC[C@]21C	26.6 µM	26.9 µM	17 µM	48.2 µM
CC(C)c1ccc2c(c1)/C(=N\O)C[C@H]1[C@](C)(C(=O)N[C@H](Cc3ccccc3)C(=O)Nc3ccccc3F)CCC[C@]21C	20.8 µM	42.5 µM	13.4 µM	54.8 µM
CC(C)c1ccc2c(c1)C(=O)C[C@H]1[C@](C)(C(=O)N[C@@H](Cc3ccccc3)C(=O)Nc3ccccc3F)CCC[C@]21C	18.9 µM	57.1 µM	18.9 µM	47.6 µM
COc1ccccc1NC(=O)[C@@H](Cc1ccccc1)NC(=O)[C@]1(C)CCC[C@]2(C)c3ccc(C(C)C)cc3C(=O)C[C@@H]12	40.7 µM	85.4 µM	30.9 µM	55.7 µM
COc1cc(NC(=O)[C@@H](Cc2ccccc2)NC(=O)[C@]2(C)CCC[C@]3(C)c4ccc(C(C)C)cc4/C(=N\O)C[C@@H]23)cc(OC)c1OC	32 µM	36.1 µM	15.6 µM	56.2 µM
CC(C)c1ccc2c(c1)C(=O)C[C@H]1[C@](C)(C(=O)N[C@@H](Cc3ccccc3)C(=O)Nc3ccc(F)cc3)CCC[C@]21C	63.5 µM	61.6 µM	20.1 µM	66.5 µM
COc1ccc(NC(=O)[C@H](Cc2ccccc2)NC(=O)[C@]2(C)CCC[C@]3(C)c4ccc(C(C)C)cc4/C(=N\O)C[C@@H]23)cc1	10.9 µM	32 µM	14.6 µM	49.6 µM
